From US20120178738A1, “DIBENZO [B,F] [1,4]OXAZAPINE COMPOUNDS” (ARYX THERAPEUTICS, INC., priority 2007, published 2012)
Like-named read-outs stand apart in the source and are kept apart here.

Key:
human 5HT2C receptors = target: T1, human 5HT2C receptors (Homo sapiens, UniProt P28335); test: h5-HT2C receptor radioligand binding ([3H]Mesulergine); conditions: pKi reported on a scale of 1 through 5
T1 construct: expressed in transfected cells; host or cells: human embryo kidney cells (membranes)
T1 sequence (P28335 33-458): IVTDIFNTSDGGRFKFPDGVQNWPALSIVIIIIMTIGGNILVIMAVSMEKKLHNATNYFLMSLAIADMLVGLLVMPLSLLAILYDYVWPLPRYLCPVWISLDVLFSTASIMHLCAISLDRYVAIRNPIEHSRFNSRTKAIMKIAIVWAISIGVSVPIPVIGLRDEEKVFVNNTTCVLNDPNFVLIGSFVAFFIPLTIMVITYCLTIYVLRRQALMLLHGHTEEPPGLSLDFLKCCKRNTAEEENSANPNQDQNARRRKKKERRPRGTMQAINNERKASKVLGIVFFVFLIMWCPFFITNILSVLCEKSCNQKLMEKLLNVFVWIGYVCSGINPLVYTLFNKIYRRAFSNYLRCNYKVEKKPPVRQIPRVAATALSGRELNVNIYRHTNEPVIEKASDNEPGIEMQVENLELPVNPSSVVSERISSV
Description: The measurements were based on the binding of a single concentration of radiolabeled ligand in the presence of various concentrations of unlabeled ligand.
(§1) Tissues (or cellular plasma membrane fractions) were incubated in the presence of radioligand at equilibrium and in the presence of a range of concentrations of the test compounds (which were non-radiolabeled), and the displaced radioligand was separated from the membranes by filtration. Nonspecific binding was assessed by measuring displacement of the radioligand in the presence of a compound known to block binding of the radioligand to the receptor. Finally, the concentration-response relationship for radioligand displacement (corrected for non-specific binding) was used to assess binding of the test compound to the receptor.

human H1 receptors = target: T2, human H1 receptors (Homo sapiens, UniProt P35367); test: hH1 receptor radioligand binding ([3H]Pyrilamine); conditions: pKi reported on a scale of 1 through 5
T2 construct: expressed in transfected cells; host or cells: Chinese hamster ovary cells (membranes)
Description: (§2) Consistent with standard competition radioligand binding assays, the methodology was based on displacement of radioligand from tissues (or cell lines) bearing the receptor of interest (Cheng, Y. and Prusoff, W. H. (1973). Biochem. Pharmacol. 22, 3099-3108). The measurements were based on the binding of a single concentration of radiolabeled ligand in the presence of various concentrations of unlabeled ligand.
as §1

human 5HT1A receptors = target: T3, human 5HT1A receptors (Homo sapiens, UniProt P08908); test: h5-HT1A receptor radioligand binding ([3H]8OH-DPAT); conditions: pKi reported on a scale of 1 through 5
T3 construct: expressed in transfected cells; host or cells: Chinese hamster ovary cells (membranes)
T3 sequence (P08908 1-422): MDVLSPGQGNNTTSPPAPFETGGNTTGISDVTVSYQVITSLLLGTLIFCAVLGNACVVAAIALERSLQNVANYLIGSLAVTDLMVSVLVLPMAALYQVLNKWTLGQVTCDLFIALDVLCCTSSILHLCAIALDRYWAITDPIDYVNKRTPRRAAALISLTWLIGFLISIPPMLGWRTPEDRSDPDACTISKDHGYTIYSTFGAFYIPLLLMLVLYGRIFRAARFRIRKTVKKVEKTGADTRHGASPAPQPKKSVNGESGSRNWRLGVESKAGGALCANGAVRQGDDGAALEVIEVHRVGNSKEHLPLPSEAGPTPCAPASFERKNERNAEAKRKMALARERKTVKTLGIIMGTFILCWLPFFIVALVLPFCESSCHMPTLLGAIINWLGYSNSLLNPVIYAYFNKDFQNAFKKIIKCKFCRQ
Description: as §2, §1

[1] = target: T4, human D2s dopamine receptors (Homo sapiens, UniProt P14416); test: hD2S receptor radioligand binding ([3H]spiperone); conditions: pKi reported on a scale of 1 through 5
T4 construct: expressed in transfected cells; host or cells: Chinese hamster ovary cells (membranes)
Description: as §2, §1

human M1 receptors = target: T5, human M1 receptors (Homo sapiens, UniProt P11229); test: hM1 receptor radioligand binding ([3H]NMS); conditions: pKi reported on a scale of 1 through 5
T5 construct: expressed in transfected cells; host or cells: Chinese hamster ovary cells (membranes)
T5 sequence (P11229 1-460): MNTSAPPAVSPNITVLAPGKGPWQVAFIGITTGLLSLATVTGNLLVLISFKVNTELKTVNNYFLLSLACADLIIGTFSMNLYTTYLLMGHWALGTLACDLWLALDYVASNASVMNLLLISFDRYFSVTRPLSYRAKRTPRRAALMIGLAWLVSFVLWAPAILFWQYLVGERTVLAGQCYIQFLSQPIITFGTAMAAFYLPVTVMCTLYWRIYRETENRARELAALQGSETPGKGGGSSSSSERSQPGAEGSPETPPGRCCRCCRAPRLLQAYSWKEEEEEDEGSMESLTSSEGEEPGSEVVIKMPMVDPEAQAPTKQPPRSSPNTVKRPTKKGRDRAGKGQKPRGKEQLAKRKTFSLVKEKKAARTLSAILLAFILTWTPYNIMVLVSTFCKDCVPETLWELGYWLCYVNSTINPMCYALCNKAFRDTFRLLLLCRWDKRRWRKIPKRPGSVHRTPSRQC
Description: as §2, §1

5-HT2A receptor = target: T6, 5-HT2A receptor (Rattus norvegicus, UniProt P14842); test: cell-based; conditions: read-out: 5HT2A (pKb) (converted)
T6 construct: Eight strips of tissue (0.5 cm long) were cut. and were mounted in 10 ml organ baths; tissue Charles River Laboratories; host or cells: rat aorta strips, endothelium removed
Description: The rat aorta (approximately 7 cm) was isolated and removed from the animal (male Sprague Dawley rat, Charles River Laboratories, Hollister, Calif.). The endothelium was removed mechanically. Eight strips of tissue (0.5 cm long) were cut. and were mounted in 10 ml organ baths kept at 37° C. with Krebs solution (composition in mM: NaCl (118.2), KCl (4.6), CaCl2 (2.5), MgSO4 (1.2), KH2PO4 (1.2), NaHCO3 (24.8) and dextrose (10.0)) that was constantly aerated with carbogen gas (95% O2/5% CO2) to obtain a pH of 7.4. The tissues were subjected to a resting tension of 2 g (3 times, 15 minutes apart, equilibrated in Krebs solution). The tissues were then washed 15 minutes later. Ten minutes later, the tissues were then exposed to 0.1 μM phenylephrine. At the maximal effect, 1 μM acetylcholine was added to confirm the absence of endothelium and then washed twice, 2 minutes apart.
Contractions were recorded as changes in tension from baseline and expressed as a percentage of the maximum response of the agonist (5-HT) concentration-effect curve. Agonist concentration-response curves were fitted using a nonlinear iterative fitting program (GraphPad Prism) using the relationship of Parker and Waud (Parker, R. B. and Waud, D. R. (1971). Pharmacological estimation of drug-receptor dissociation constants. Statistical evaluation. I. Agonists. J. Pharmacol. Exp. Ther., 177, 1-12). Agonist potency was expressed as EC50 (molar concentration of agonist producing 50% of the maximum response). Concentration-ratios (CRs) were determined from EC50 values in the presence and absence of antagonist and antagonist affinity estimates (pKB and pA2 values) were determined. All data are expressed as mean±s.e. mean.

[2] = pKb reported on a scale of 1 through 5

T2 sequence (P35367 whole entry): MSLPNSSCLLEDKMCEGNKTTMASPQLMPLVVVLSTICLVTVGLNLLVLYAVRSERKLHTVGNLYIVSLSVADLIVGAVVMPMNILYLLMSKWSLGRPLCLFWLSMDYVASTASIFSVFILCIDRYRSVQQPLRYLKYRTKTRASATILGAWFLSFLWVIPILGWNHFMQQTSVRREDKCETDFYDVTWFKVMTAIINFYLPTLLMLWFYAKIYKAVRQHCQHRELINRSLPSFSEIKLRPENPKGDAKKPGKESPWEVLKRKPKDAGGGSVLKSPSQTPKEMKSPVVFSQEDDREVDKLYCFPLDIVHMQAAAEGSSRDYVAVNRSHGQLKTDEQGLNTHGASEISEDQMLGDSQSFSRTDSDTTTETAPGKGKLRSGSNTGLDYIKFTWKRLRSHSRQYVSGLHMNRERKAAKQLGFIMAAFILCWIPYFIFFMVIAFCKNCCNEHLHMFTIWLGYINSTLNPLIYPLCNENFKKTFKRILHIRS
T6 sequence (P14842 whole entry): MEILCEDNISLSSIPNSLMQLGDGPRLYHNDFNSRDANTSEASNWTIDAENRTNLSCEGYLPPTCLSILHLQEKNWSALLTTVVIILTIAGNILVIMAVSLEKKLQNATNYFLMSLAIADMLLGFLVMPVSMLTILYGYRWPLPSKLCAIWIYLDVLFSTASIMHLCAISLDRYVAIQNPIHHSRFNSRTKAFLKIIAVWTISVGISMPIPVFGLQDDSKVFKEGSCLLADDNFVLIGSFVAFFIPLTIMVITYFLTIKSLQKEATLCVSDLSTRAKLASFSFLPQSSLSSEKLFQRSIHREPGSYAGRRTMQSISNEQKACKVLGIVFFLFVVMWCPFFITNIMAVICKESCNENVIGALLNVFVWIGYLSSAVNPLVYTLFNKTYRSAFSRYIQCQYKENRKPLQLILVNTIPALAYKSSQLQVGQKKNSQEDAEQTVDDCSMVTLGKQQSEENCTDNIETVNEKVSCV
T4 sequence (P14416 1-414 isoform P14416-2): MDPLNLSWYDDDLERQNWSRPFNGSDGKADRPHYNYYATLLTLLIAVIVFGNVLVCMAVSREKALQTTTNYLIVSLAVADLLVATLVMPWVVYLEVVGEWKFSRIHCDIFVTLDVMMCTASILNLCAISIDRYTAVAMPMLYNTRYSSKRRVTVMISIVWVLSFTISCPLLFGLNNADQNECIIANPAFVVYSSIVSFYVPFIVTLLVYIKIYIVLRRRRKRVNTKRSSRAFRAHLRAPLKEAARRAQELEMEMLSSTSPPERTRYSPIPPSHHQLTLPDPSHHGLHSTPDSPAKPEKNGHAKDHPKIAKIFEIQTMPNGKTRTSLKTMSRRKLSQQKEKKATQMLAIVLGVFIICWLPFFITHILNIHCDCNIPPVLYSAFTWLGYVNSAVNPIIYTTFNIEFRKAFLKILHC

`CN1CCN(C2=Nc3cc(Cl)ccc3Oc3ccccc32)C[C@@H]1CC(=O)OCCCF` [EX, (S,E)-3-fluoropropyl 2-(4-(8-chlorodibenzo[b,f][1,4]oxazepin-11-yl)-1-methylpiperazin-2-yl)acetate] was tested, and the Ki (human 5HT2C receptors) was 100 to 977 nM, the Ki (human H1 receptors) was 10 to 97.7 nM and the Ki (human 5HT1A receptors) was 1000 to 9770 nM. For the same molecule, the Ki [1] was 2510 to 9770 nM and the Ki (human M1 receptors) was 5010 to 9770 nM.

In the case of `CN1CCN(C2=Nc3cc(Cl)ccc3Oc3ccccc32)C[C@@H]1CC(=O)NC(CF)CF` [EV, (S,E)-2-(4-(8-chlorodibenzo[b,f][1,4]oxazepin-11-yl)-1-methylpiperazin-2-yl)-N-(1,3-difluoropropan-2-yl)acetamide], the Kb (5-HT2A receptor) is reported as 31.6 to 97.7 nM, the Ki (human H1 receptors) is reported as 10 to 97.7 nM and the Ki (human 5HT1A receptors) is reported as 1000 to 9770 nM. The Ki [1] was 2510 to 9770 nM and the Ki (human M1 receptors) was 5010 to 9770 nM.

`O=C(C[C@H]1CN(C2=Nc3cc(Cl)ccc3Oc3ccccc32)CCN1)N1CC[C@@H](O)C1` [GE, 2-((S)-4-((E)-8-chlorodibenzo[b,f][1,4]oxazepin-11-yl)piperazin-2-yl)-1-((R)-3-hydroxypyrrolidin-1-yl)ethanone] showed a Kb (5-HT2A receptor) of 10 to 30.9 nM, a Ki (human 5HT1A receptors) of 100 to 977 nM and a Ki [1] of 2510 to 9770 nM. It also gave a Ki (human M1 receptors) of 2510 to 4900 nM.

For `CN1CC[C@@H](OC(=O)C[C@H]2CN(C3=Nc4cc(Cl)ccc4Oc4ccccc43)CCN2C)C1` [ES, (R)-1-methylpyrrolidin-3-yl 2-((S)-4-((E)-8-chlorodibenzo[b,f][1,4]oxazepin-11-yl)-1-methylpiperazin-2-yl)acetate], the Ki (human H1 receptors) was 10 to 97.7 nM, the Ki (human 5HT1A receptors) was 1000 to 9770 nM and the Ki [1] was over 10000 nM. The Ki (human M1 receptors) was over 10000 nM.

`COC(=O)COCC1CN(C2=Nc3ccccc3Oc3ccc(Cl)cc32)CCN1C` (centres unmarked) [DM, (E)-methyl 2-((4-(2-chlorodibenzo[b,f][1,4]oxazepin-11-yl)-1-methylpiperazin-2-yl)methoxy)acetate] gave a Kb (5-HT2A receptor) of 10 to 30.9 nM and a Ki [1] of over 10000 nM.

With `CC(C)CNC(=O)CC1CN(C2=Nc3cc(Cl)ccc3Oc3ccccc32)CCN1` (centres unmarked) [B, (E)-2-(4-(8-chlorodibenzo[b,f][1,4]oxazepin-11-yl)piperazin-2-yl)-N-isobutylacetamide] the Kb (5-HT2A receptor) was 31.6 to 97.7 nM, the Ki [1] was 158 to 617 nM and the Ki (human M1 receptors) was over 10000 nM.

Molecule `COC(=O)c1ccc(OC[C@H]2CN(C3=Nc4ccccc4Oc4ccc(Cl)cc43)CCN2)cc1` [D, (R,E)-methyl 4-((4-(2-chlorodibenzo[b,f][1,4]oxazepin-11-yl)piperazin-2-yl)methoxy)benzoate] has a Kb (5-HT2A receptor) of 31.6 to 97.7 nM, a Ki (human H1 receptors) of 100 to 977 nM and a Ki [1] of 631 to 2450 nM. It also gave a Ki (human M1 receptors) of over 10000 nM.

With `CN1CCN(C2=Nc3cc(Cl)ccc3Oc3ccccc32)C[C@@H]1CC(=O)N(CC(F)(F)F)CC(F)(F)F` [EW, (S,E)-2-(4-(8-chlorodibenzo[b,f][1,4]oxazepin-11-yl)-1-methylpiperazin-2-yl)-N,N-bis(2,2,2-trifluoroethyl)acetamide] the Kb (5-HT2A receptor; [2]) was over 100 nM, the Ki (human 5HT2C receptors) was 1000 to 9770 nM and the Ki (human H1 receptors) was 100 to 977 nM. The Ki (human 5HT1A receptors) was 1000 to 9770 nM, the Ki [1] was over 10000 nM and the Ki (human M1 receptors) was 5010 to 9770 nM.

Molecule `CCOC(=O)CC1CN(C2=Nc3ccccc3Oc3ccc(Cl)cc32)CCN1` (single isomer, unassigned) [Compound C, (E)-ethyl 2-(4-(2-chlorodibenzo[b,f][1,4]oxazepin-11-yl)piperazin-2-yl)acetate] has a Kb (5-HT2A receptor) of 31.6 to 97.7 nM, a Ki [1] of 2510 to 9770 nM and a Ki (human M1 receptors) of over 10000 nM.

With `CCOC(=O)c1ccc(CCC2CN(C3=Nc4cc(Cl)ccc4Oc4ccccc43)CCN2)cc1` (centres unmarked) [Compound F, (E)-ethyl 4-(2-(4-(8-chlorodibenzo[b,f][1,4]oxazepin-11-yl)piperazin-2-yl)ethyl)benzoate] the Kb (5-HT2A receptor; [2]) was over 100 nM, the Ki (human H1 receptors) was 1000 to 9770 nM and the Ki [1] was 631 to 2450 nM. The Ki (human M1 receptors) was 1260 to 2450 nM.

With `CN1CCN(C2=Nc3cc(Cl)ccc3Oc3ccccc32)CC1CC(=O)O` (centres unmarked) [DO, (E)-2-(4-(8-chlorodibenzo[b,f][1,4]oxazepin-11-yl)-1-methylpiperazin-2-yl)acetic acid] the Ki (human 5HT2C receptors) was 100 to 977 nM, the Ki (human H1 receptors) was 10 to 97.7 nM and the Ki (human 5HT1A receptors) was 1000 to 9770 nM. For the same molecule, the Ki [1] was over 10000 nM.

With `COC(=O)C[C@H]1CN(C2=Nc3cc(Cl)ccc3Oc3ccccc32)CCN1CC1CC1` [ET, (S,E)-methyl 2-(4-(8-chlorodibenzo[b,f][1,4]oxazepin-11-yl)-1-(cyclopropylmethyl)piperazin-2-yl)acetate] the Kb (5-HT2A receptor; [2]) was over 100 nM, the Ki (human H1 receptors) was 100 to 977 nM and the Ki (human 5HT1A receptors) was 1000 to 9770 nM. The Ki [1] was 631 to 2450 nM and the Ki (human M1 receptors) was 2510 to 4900 nM.

With `COCCNC(=O)C[C@H]1CN(C2=Nc3cc(Cl)ccc3Oc3ccccc32)CCN1CCO` [GI, (S,E)-2-(4-(8-chlorodibenzo[b,f][1,4]oxazepin-11-yl)-1-(2-hydroxyethyl)piperazin-2-yl)-N-(2-methoxyethyl)acetamide] the Kb (5-HT2A receptor) was 31.6 to 97.7 nM, the Ki (human 5HT1A receptors) was 1000 to 9770 nM and the Ki [1] was over 10000 nM. For the same molecule, the Ki (human M1 receptors) was over 10000 nM.

In the case of `COC(=O)c1ccc(OCC2CN(C3=Nc4cc(Cl)ccc4Oc4ccccc43)CCN2)cc1` (centres unmarked) [G, (E)-methyl 4-((4-(8-chlorodibenzo[b,f][1,4]oxazepin-11-yl)piperazin-2-yl)methoxy)benzoate], the Kb (5-HT2A receptor) is reported as 10 to 30.9 nM, the Ki (human H1 receptors) is reported as 1000 to 9770 nM and the Ki [1] is reported as 2510 to 9770 nM. For the same molecule, the Ki (human M1 receptors) was 5010 to 9770 nM.

`CC[C@H](C)OC(=O)C[C@H]1CN(C2=Nc3cc(Cl)ccc3Oc3ccccc32)CCN1` [EP, sec-butyl 2-((S)-4-((E)-8-chlorodibenzo[b,f][1,4]oxazepin-11-yl)piperazin-2-yl)acetate] was tested, and the Kb (5-HT2A receptor) was 10 to 30.9 nM, the Ki (human H1 receptors) was 100 to 977 nM and the Ki (human 5HT1A receptors) was 10 to 97.7 nM. The Ki [1] was 158 to 617 nM and the Ki (human M1 receptors) was 5010 to 9770 nM.
